Results from paper PMC3943433 (Journal of medicinal chemistry, 2013).
Like-named read-outs stand apart in the source and are kept apart here.

What was measured:
SHV-1 β-lactamase [1] = molecular target: T1, SHV-1 β-lactamase (Klebsiella pneumoniae, UniProt P0AD64)
SHV K234R β-lactamase [2] = molecular target: T2, SHV K234R β-lactamase (Klebsiella pneumoniae, UniProt P0AD64, K230R); assay: Far-UV circular dichroism and thermal denaturation in the presence of inhibitors; conditions: for ΔHVH: K234R 10 µM with 50 µM inhibitor, van't Hoff plot; for effect on secondary structure (far UV CD): K234R 10 µM, 50 µM inhibitor
SHV K234R β-lactamase [3] = molecular target: T2, SHV K234R β-lactamase; assay: Ki by direct competition assay with nitrocefin; assay type: biochemical; conditions: for fold lower Ki for K234R relative to SHV-1: K234R vs SHV-1
SHV-1 β-lactamase [4] = molecular target: T1, SHV-1 β-lactamase; assay type: biochemical
SHV K234R β-lactamase [5] = molecular target: T2, SHV K234R β-lactamase; assay: Steady-state kinetics with β-lactam substrates; assay type: biochemical; conditions: K234R relative to SHV-1, from kcat/Km (eq 3)
[6] = tested on: E. coli DH10B expressing blaSHV K234X (other 16 amino acid substitutions); assay: MIC by Mueller-Hinton agar dilution; assay type: cell-based; conditions: Escherichia coli, E. coli blaSHV K234X (other 16 substitutions); β-lactam alone
[7] = tested on: CC(=O)OCC1=C(C(=O)O)N2C(=O)[C@@H](NC(=O)Cc3cccs3)[C@H]2SC1; assay: Steady-state kinetics with β-lactam substrates; assay type: biochemical, Klebsiella pneumoniae; conditions: other: SHV-1, substrate, 10 mM PBS pH 7.4, room temperature
[8] = tested on: CCN1CCN(C(=O)N[C@@H](C(=O)N[C@@H]2C(=O)N3[C@@H]2SC(C)(C)[C@@H]3C(=O)O)c2ccccc2)C(=O)C1=O; assay: Steady-state kinetics with β-lactam substrates; assay type: biochemical, Klebsiella pneumoniae; conditions: other: SHV-1, substrate, 10 mM PBS pH 7.4, room temperature
[9] = tested on: O=C(Cc1cccs1)N[C@@H]1C(=O)N2C(C(=O)O)=C(/C=C/c3ccc([N+](=O)[O-])cc3[N+](=O)[O-])CS[C@H]12; assay: Steady-state kinetics with β-lactam substrates; assay type: biochemical, Klebsiella pneumoniae; conditions: other: SHV-1, substrate, 10 mM PBS pH 7.4, room temperature
E. coli DH10B = assay type: cell-based; conditions: inhibitor in the presence of 50 µg/mL ampicillin
[10] = tested on: E. coli DH10B expressing blaSHV-1; assay: MIC by Mueller-Hinton agar dilution; assay type: cell-based; conditions: E. coli blaSHV-1; inhibitor in the presence of 50 µg/mL ampicillin
[11] = tested on: E. coli DH10B expressing blaSHV K234R; assay type: cell-based; conditions: inhibitor in the presence of 50 µg/mL ampicillin
[12] = tested on: E. coli DH10B expressing blaSHV K234A; assay type: cell-based; conditions: inhibitor in the presence of 50 µg/mL ampicillin
[13] = SHV-1 10 µM with 50 µM inhibitor, van't Hoff plot

Molecule: O=C(Cc1cccs1)NCB(O)O [Achiral Cephalothin BATSI]
- ΔHVH (SHV-1 β-lactamase [1]; [13]): 160 kcal/mol
- ΔHVH (SHV K234R β-lactamase [2]): 100 kcal/mol
- effect on secondary structure (far UV CD) (SHV K234R β-lactamase [2]): affect the secondary structure

Molecule: N[C@@H](C(=O)N[C@@H](Cc1cccc(C(=O)O)c1)B(O)O)c1ccccc1 [Chiral Ampicillin BATSI]
- fold lower Ki for K234R relative to SHV-1 (SHV K234R β-lactamase [3]): 23 fold
- ΔHVH (SHV-1 β-lactamase [1]; [13]): 143 kcal/mol
- ΔHVH (SHV K234R β-lactamase [2]): 119 kcal/mol
- increase of melting temperature (SHV K234R β-lactamase [2]; K234R with inhibitor vs apo): 6.6 °C

Molecule: O=C(Cc1cccs1)N[C@@H](Cc1cccc(C(=O)O)c1)B(O)O [Chiral Cephalothin BATSI]
- fold lower Ki than the achiral BATSI (SHV-1 β-lactamase [4]): 44 fold
- fold difference in Ki, achiral vs chiral cephalothin BATSI (SHV K234R β-lactamase [3]; K234R): 5000 fold
- fold lower Ki for K234R relative to SHV-1 (SHV K234R β-lactamase [3]): 38 fold

Molecule: O=C(O)[C@H]1/C(=C/CO)O[C@@H]2CC(=O)N21 [Clavulanate, clavulanate]
- effect on secondary structure (far UV CD) (SHV-1 β-lactamase [1]): affects the secondary structure of both enzymes
- ΔHVH (SHV-1 β-lactamase [1]): 113 kcal/mol
- ΔΔGu (SHV-1 β-lactamase [1]): +0.28 kcal/mol
- ΔHVH (SHV K234R β-lactamase [2]): 68 kcal/mol
- effect on secondary structure (far UV CD) (SHV K234R β-lactamase [2]): affects the secondary structure of both enzymes

Molecule: O=C(Cc1cccs1)N[C@@H]1C(=O)N2C(C(=O)O)=C(/C=C/c3ccc([N+](=O)[O-])cc3[N+](=O)[O-])CS[C@H]12 [Nitrocefin, nitrocefin]
- ΔΔGcat (SHV K234R β-lactamase [5]): +0.70 kcal/mol

Molecule: CC1(C)[C@H](C(=O)O)N2C(=O)C[C@H]2S1(=O)=O [Sulbactam, sulbactam]
- effect on secondary structure (far UV CD) (SHV-1 β-lactamase [1]): not SHV-1
- ΔHVH (SHV-1 β-lactamase [1]): 183 kcal/mol
- ΔΔGu (SHV-1 β-lactamase [1]): +0.07 kcal/mol
- effect on secondary structure (far UV CD) (SHV K234R β-lactamase [2]): affect the secondary structure

Molecule: C[C@]1(Cn2ccnn2)[C@H](C(=O)O)N2C(=O)C[C@H]2S1(=O)=O [Tazobactam, tazobactam]
- ΔHVH (SHV-1 β-lactamase [1]; [13]): 149 kcal/mol
- effect on secondary structure (far UV CD) (SHV-1 β-lactamase [1]; SHV-1 10 µM, 50 µM inhibitor): not SHV-1
- ΔHVH (SHV K234R β-lactamase [2]): 114 kcal/mol
- effect on secondary structure (far UV CD) (SHV K234R β-lactamase [2]): affect the secondary structure

Molecule: CC1(C)S[C@@H]2[C@H](NC(=O)[C@H](N)c3ccccc3)C(=O)N2[C@H]1C(=O)O [amp, ampicillin]
- MIC [6]: ≤ 4 µg/mL

Molecule: CCN1CCN(C(=O)N[C@@H](C(=O)N[C@@H]2C(=O)N3[C@@H]2SC(C)(C)[C@@H]3C(=O)O)c2ccccc2)C(=O)C1=O [pip, piperacillin]
- MIC [6]: ≤ 8 µg/mL
- ΔΔGcat (SHV K234R β-lactamase [5]): +0.33 kcal/mol

Molecule: CC(=O)OCC1=C(C(=O)O)N2C(=O)[C@@H](NC(=O)Cc3cccs3)[C@H]2SC1 [thin, cephalothin]
- ΔΔGcat (SHV K234R β-lactamase [5]): +1.00 kcal/mol

Molecule: SHV-1 β-lactamase (Klebsiella pneumoniae)
- Km [7]: 48.9 ± 11.2 µM
- kcat [7]: 42.6 ± 3.4 s⁻¹
- kcat/Km [7]: 870000 ± 300000 M⁻¹ s⁻¹
- Km [8]: 74.6 ± 11.7 µM
- kcat [8]: 1180 ± 65 s⁻¹
- kcat/Km [8]: 1.58e+07 ± 600000 M⁻¹ s⁻¹
- Km [9]: 24.7 ± 5 µM
- kcat [9]: 348 ± 21.5 s⁻¹
- kcat/Km [9]: 1.41e+07 ± 220000 M⁻¹ s⁻¹

Molecule: ampicillin/clavulanate [amp/ clav]
- MIC (E. coli DH10B): <0.06 µg/mL
- MIC [10]: 4 µg/mL
- MIC [11]: 16 µg/mL
- MIC [12]: <0.06 µg/mL

Molecule: ampicillin/sulbactam [amp/ sul]
- MIC (E. coli DH10B): <0.06 µg/mL
- MIC [10]: 512 µg/mL
- MIC [11]: 64 µg/mL
- MIC [12]: <0.06 µg/mL

Molecule: ampicillin/tazobactam [amp/ tazo]
- MIC (E. coli DH10B): <0.06 µg/mL
- MIC [10]: 128 µg/mL
- MIC [11]: 16 µg/mL
- MIC [12]: <0.06 µg/mL
